The text below walks through data of patent US20130190289A1, “COMPOUNDS AND METHODS FOR THE TREATMENT OR PREVENTION OF FLAVIVIRUS INFECTIONS” (priority 2010, published 2013).

SMILES strings stand for the structures.

Data set [1] is described as follows: [3H]Thymidine incorporation assay (cell toxicity). The following applies: human.
In data set [2] the test system is HCV replicon (genotype 1b) in Huh7 cell line ET. Nature of the data set: microbe, parasite or virus in culture. Type of data set: cell-based, HCV genotype 1b. The following applies: Hepatitis C virus, Huh-7, read-out: HCV-Replicon-(Luci-ET) 1b_IC50.

Molecule `CC(C(=O)N(C)C)N(c1cc(C#CC(C)(C)C)sc1C(=O)O)C(=O)[C@H]1CC[C@H](C)CC1` (relative stereo) [Compound 7, 5-(3,3-Dimethyl-but-1-ynyl)-3-[(1-dimethylcarbamoyl-ethyl)-(trans-4-methyl-cyclohexanecarbonyl)-amino]-thiophene-2-carboxylic acid] displayed a CC50 at 72 h in data set [1] of 10 to 100 µM. In data set [2], the IC50 is less than 0.1 µM.

`CC(CC(=O)N(C)C)N(c1cc(C#CC(C)(C)C)sc1C(=O)O)C(=O)[C@H]1CC[C@H](C)CC1` (relative stereo) [Compound 99, 3-[[3-(Dimethylamino)-1-methyl-3-oxo-propyl]-(trans-4-methylcyclohexanecarbonyl)amino]-5-(3,3-dimethylbut-1-ynyl)thiophene-2-carboxylic acid] gave a CC50 at 72 h in data set [1] of 10 to 100 µM. In addition, in data set [2], the IC50 was less than 0.1 µM.

Molecule `CC(CC(=O)N1CCCC1)N(c1cc(C#CC(C)(C)C)sc1C(=O)O)C(=O)[C@H]1CC[C@H](C)CC1` (relative stereo) [Compound 101, 5-(3,3-dimethylbut-1-yn-1-yl)-3-((trans)-4-methyl-N-(4-oxo-4-(pyrrolidin-1-yl)butan-2-yl)cyclohexanecarboxamido)thiophene-2-carboxylic acid] showed a CC50 at 72 h in data set [1] of 10 to 100 µM. Further, the IC50 in data set [2] is less than 0.1 µM.

`CC(CN(c1cc(C#CC(C)(C)C)sc1C(=O)O)C(=O)[C@H]1CC[C@H](C)CC1)C(=O)N1CCOCC1` (relative stereo) [Compound 104, 5-(3,3-Dimethylbut-1-ynyl)-3-[(trans-4-methylcyclohexanecarbonyl)-(2-methyl-3-morpholino-3-oxo-propyl)amino]thiophene-2-carboxylic acid] displayed a CC50 at 72 h in data set [1] of more than 100 µM. Moreover, the IC50 in data set [2] was less than 0.1 µM.

In data set [1], `CN1CC(N(c2cc(C#CC(C)(C)C)sc2C(=O)O)C(=O)[C@H]2CC[C@H](C)CC2)CC1=O` (relative stereo) [Compound 107, 5-(3,3-Dimethylbut-1-ynyl)-3-[(trans-4-methylcyclohexanecarbonyl)-(1-methyl-5-oxo-pyrrolidin-3-yl)amino]thiophene-2-carboxylic acid] displayed a CC50 at 72 h of more than 100 µM. The IC50 in data set [2] was less than 0.1 µM.

Consider `CC1CCC(C(=O)N(c2cc(C#CC(C)(C)C)sc2C(=O)O)[C@@H]2CCN(C)C2=O)CC1` (single isomer, unassigned) [Compound 92], for which the CC50 at 72 h in data set [1] is more than 100 µM. Moreover, in data set [2], the IC50 was less than 0.1 µM.

In data set [1], `CNC(=O)CN(c1cc(C#CC(C)(C)C)sc1C(=O)O)C(=O)[C@H]1CC[C@H](C)CC1` [Compound 1, 5-(3,3-dimethylbut-1-ynyl)-3-[[2-(methylamino)-2-oxo-ethyl]-(trans-4-methylcyclohexanecarbonyl)amino]thiophene-2-carboxylic acid] registered a CC50 at 72 h of 10 to 100 µM. The IC50 in data set [2] was less than 0.1 µM.

Molecule `C[C@H](C(=O)N(C)C)N(c1cc(C#CC(C)(C)C)sc1C(=O)O)C(=O)[C@H]1CC[C@H](C)CC1` [Compound 2, 5-(3,3-Dimethyl-but-1-ynyl)-3-[((R)-1-dimethylcarbamoyl-ethyl)-(trans-4-methyl-cyclohexanecarbonyl)-amino]-thiophene-2-carboxylic acid] returned a CC50 at 72 h in data set [1] of 10 to 100 µM. In addition, in data set [2], the IC50 was less than 0.1 µM.

Take `CCN(CC)C(=O)[C@H](C)N(c1cc(C#CC(C)(C)C)sc1C(=O)O)C(=O)[C@H]1CC[C@H](C)CC1` [Compound 8, 3-[[(1S)-2-(diethylamino)-1-methyl-2-oxo-ethyl]-(trans-4-methylcyclohexanecarbonyl)amino]-5-(3,3-dimethylbut-1-ynyl)thiophene-2-carboxylic acid]: the CC50 at 72 h in data set [1] is more than 100 µM. Besides, in data set [2], the IC50 was less than 0.1 µM.

Molecule `C[C@@H](C(=O)N1CCCC1)N(c1cc(C#CC(C)(C)C)sc1C(=O)O)C(=O)[C@H]1CC[C@H](C)CC1` [Compound 9, 5-(3,3-Dimethylbut-1-ynyl)-3-[(trans-4-methylcyclohexanecarbonyl)-[(1S)-1-methyl-2-oxo-2-pyrrolidin-1-yl-ethyl]amino]thiophene-2-carboxylic acid] yielded a CC50 at 72 h in data set [1] of more than 100 µM. Further, in data set [2], the IC50 is less than 0.1 µM.

For `C[C@@H](C(=O)NC1CCCC1)N(c1cc(C#CC(C)(C)C)sc1C(=O)O)C(=O)[C@H]1CC[C@H](C)CC1` [Compound 18, 3-[[(1S)-2-(Cyclopentylamino)-1-methyl-2-oxo-ethyl]-(trans-4-methylcyclohexanecarbonyl)amino]-5-(3,3-dimethylbut-1-ynyl)thiophene-2-carboxylic acid], the CC50 at 72 h in data set [1] lay within 10 to 100 µM. Further, the IC50 in data set [2] was less than 0.1 µM.

As for `C[C@@H](C(=O)NC1CCOCC1)N(c1cc(C#CC(C)(C)C)sc1C(=O)O)C(=O)[C@H]1CC[C@H](C)CC1` [Compound 19, 5-(3,3-Dimethylbut-1-ynyl)-3-[(trans-4-methylcyclohexanecarbonyl)-[(1S)-1-methyl-2-oxo-2-(tetrahydropyran-4-ylamino)ethyl]amino]thiophene-2-carboxylic acid], the CC50 at 72 h in data set [1] is more than 100 µM. Also, in data set [2], the IC50 was less than 0.1 µM.

In turn, `C[C@@H](C(=O)N1CCC(O)CC1)N(c1cc(C#CC(C)(C)C)sc1C(=O)O)C(=O)[C@H]1CC[C@H](C)CC1` [Compound 20, 5-(3,3-Dimethylbut-1-ynyl)-3-[[(1S)-2-(4-hydroxy-1-piperidyl)-1-methyl-2-oxo-ethyl]-(trans-4-methylcyclohexanecarbonyl)amino]thiophene-2-carboxylic acid] had a CC50 at 72 h in data set [1] of more than 100 µM. Moreover, the IC50 in data set [2] is less than 0.1 µM.

On to `COC[C@H](C(=O)N(C)C)N(c1cc(C#CC(C)(C)C)sc1C(=O)O)C(=O)[C@H]1CC[C@H](C)CC1` [Compound 22, 3-[[(1R)-2-(dimethylamino)-1-(methoxymethyl)-2-oxo-ethyl]-(trans-4-methylcyclohexanecarbonyl)amino]-5-(3,3-dimethylbut-1-ynyl)thiophene-2-carboxylic acid], for which the CC50 at 72 h in data set [1] is more than 100 µM. In addition, in data set [2], the IC50 was less than 0.1 µM.

`COC[C@@H](C(=O)N1CCOCC1)N(C(=O)C1CCCCC1)c1cc(C#CC(C)(C)C)sc1C(=O)O` [Compound 24, 3-[Cyclohexanecarbonyl-[(1S)-1-(methoxymethyl)-2-morpholino-2-oxo-ethyl]amino]-5-(3,3-dimethylbut-1-ynyl)thiophene-2-carboxylic acid]: the CC50 at 72 h in data set [1] was more than 100 µM. The IC50 in data set [2] is less than 0.1 µM.

`CC1CN(C(=O)CN(c2cc(C#CC(C)(C)C)sc2C(=O)O)C(=O)[C@H]2CC[C@H](C)CC2)CCO1` (stereo partly drawn) [Compound 26]: in data set [1], the CC50 at 72 h lay within 10 to 100 µM. In addition, in data set [2], the IC50 was less than 0.1 µM.

For `C[C@@H](C(=O)N1CC[C@H](O)C1)N(c1cc(C#CC(C)(C)C)sc1C(=O)O)C(=O)[C@H]1CC[C@H](C)CC1` [Compound 29, 5-(3,3-Dimethylbut-1-ynyl)-3-[[(1S)-2-[(3S)-3-hydroxypyrrolidin-1-yl]-1-methyl-2-oxo-ethyl]-(trans-4-methylcyclohexanecarbonyl)amino]thiophene-2-carboxylic acid], the CC50 at 72 h in data set [1] is more than 100 µM. In data set [2], the IC50 was less than 0.1 µM.

Consider `C[C@@H](C(=O)NC1CCOC1)N(c1cc(C#CC(C)(C)C)sc1C(=O)O)C(=O)[C@H]1CC[C@H](C)CC1` (stereo partly drawn) [Compound 30, 5-(3,3-Dimethylbut-1-ynyl)-3-[(trans-4-methylcyclohexanecarbonyl)-[(1S)-1-methyl-2-oxo-2-(tetrahydrofuran-3-ylamino)ethyl]amino]thiophene-2-carboxylic acid], for which the CC50 at 72 h in data set [1] is more than 100 µM. Also, the IC50 in data set [2] was less than 0.1 µM.

`C[C@@H](C(=O)NC1CCC(O)CC1)N(c1cc(C#CC(C)(C)C)sc1C(=O)O)C(=O)[C@H]1CC[C@H](C)CC1` (stereo partly drawn) [Compound 31, 5-(3,3-Dimethylbut-1-ynyl)-3-[[(1S)-2-[(4-hydroxycyclohexyl)amino]-1-methyl-2-oxo-ethyl]-(trans-4-methylcyclohexanecarbonyl)amino]thiophene-2-carboxylic acid] showed a CC50 at 72 h in data set [1] of more than 100 µM. Further, the IC50 in data set [2] is less than 0.1 µM.

Take `C[C@@H](C(=O)N1CC[C@@H](O)C1)N(c1cc(C#CC(C)(C)C)sc1C(=O)O)C(=O)[C@H]1CC[C@H](C)CC1` [Compound 32, 5-(3,3-Dimethylbut-1-ynyl)-3-[[(1S)-2-[(3R)-3-hydroxypyrrolidin-1-yl]-1-methyl-2-oxo-ethyl]-(trans-4-methylcyclohexanecarbonyl)amino]thiophene-2-carboxylic acid]: the CC50 at 72 h in data set [1] is more than 100 µM. Further, the IC50 in data set [2] was less than 0.1 µM.

Take `CN(C)C(=O)[C@H](CO)N(c1cc(C#CC(C)(C)C)sc1C(=O)O)C(=O)[C@H]1CC[C@H](C)CC1` [Compound 34, 3-[[(1S)-2-(dimethylamino)-1-(hydroxymethyl)-2-oxo-ethyl]-(trans-4-methylcyclohexanecarbonyl)amino]-5-(3,3-dimethylbut-1-ynyl)thiophene-2-carboxylic acid]: the CC50 at 72 h in data set [1] was more than 100 µM. Also, the IC50 in data set [2] was less than 0.1 µM.

With `CN(C)CCN(C)C(=O)CN(c1cc(C#CC(C)(C)C)sc1C(=O)O)C(=O)[C@H]1CC[C@H](C)CC1` [Compound 118, 3-[[2-[2-Dimethylaminoethyl(methyl)amino]-2-oxo-ethyl]-(trans-4-methylcyclohexanecarbonyl)amino]-5-(3,3-dimethylbut-1-ynyl)thiophene-2-carboxylic acid], the IC50 in data set [2] is less than 0.1 µM.

In the case of `CN1CCN(C(=O)CN(c2cc(C#CC(C)(C)C)sc2C(=O)O)C(=O)[C@H]2CC[C@H](C)CC2)CC1` [Compound 119, 5-(3,3-dimethylbut-1-ynyl)-3-[(trans-4-methylcyclohexanecarbonyl)-[2-(4-methylpiperazin-1-yl)-2-oxo-ethyl]amino]thiophene-2-carboxylic acid], in data set [2], the IC50 was less than 0.1 µM.

For the molecule `CC(C)(C)C#Cc1cc(N(C(=O)[C@H]2CC[C@H](C)CC2)[C@H]2CCNC2=O)c(C(=O)O)s1` [Compound 120, 5-(3,3-dimethylbut-1-ynyl)-3-[(trans-4-methylcyclohexanecarbonyl)-[(3S)-2-oxopyrrolidin-3-yl]amino]thiophene-2-carboxylic acid], the IC50 in data set [2] was 0.1 to 1 µM.
